This note sets out measurements from patent publication US7858621B2 (Amorepacific Corporation, priority 2006, dated 2010).

Structures are written as SMILES. Bounds are passed on as bounds.

For this test, the target named is T1, vanilloid receptor (Rattus norvegicus, UniProt O35433).
T1 construct: DRG nerve cells from the primary culture of 2 days were equilibrated; endogenous in cells; host or cells: primary culture of dorsal root ganglion neurons from neonatal SD rats
T1 sequence (O35433 whole entry): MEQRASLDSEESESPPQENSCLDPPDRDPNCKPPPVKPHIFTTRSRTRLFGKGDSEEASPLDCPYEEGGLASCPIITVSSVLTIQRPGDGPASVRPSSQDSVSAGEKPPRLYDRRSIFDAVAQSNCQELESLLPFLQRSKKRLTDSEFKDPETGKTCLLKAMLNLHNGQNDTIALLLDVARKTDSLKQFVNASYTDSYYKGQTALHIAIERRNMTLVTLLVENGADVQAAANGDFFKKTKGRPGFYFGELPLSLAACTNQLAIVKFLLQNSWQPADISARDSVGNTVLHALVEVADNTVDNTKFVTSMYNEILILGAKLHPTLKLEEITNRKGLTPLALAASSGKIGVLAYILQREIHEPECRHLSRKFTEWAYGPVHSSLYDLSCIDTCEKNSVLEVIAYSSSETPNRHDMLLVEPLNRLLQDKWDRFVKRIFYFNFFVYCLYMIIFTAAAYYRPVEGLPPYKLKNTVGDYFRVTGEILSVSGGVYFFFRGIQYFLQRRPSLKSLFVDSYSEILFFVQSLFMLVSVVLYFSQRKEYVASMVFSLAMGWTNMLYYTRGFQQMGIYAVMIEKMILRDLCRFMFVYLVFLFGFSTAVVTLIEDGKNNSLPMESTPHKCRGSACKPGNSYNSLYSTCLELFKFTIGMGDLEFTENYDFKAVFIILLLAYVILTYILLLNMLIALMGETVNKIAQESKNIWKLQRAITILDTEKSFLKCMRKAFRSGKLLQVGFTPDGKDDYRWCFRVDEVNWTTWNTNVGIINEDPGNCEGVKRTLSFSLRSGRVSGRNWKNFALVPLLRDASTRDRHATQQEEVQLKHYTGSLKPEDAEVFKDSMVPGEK
The test can be described thus: 45Ca influx test in cultured neonatal rat DRG neurons, inhibition of capsaicin response. It is filed as cell-based. The settings on record: neonatal rat DRG neurons, capsaicin 0.5 μM, 45Ca influx; read-out: Antagonist Calcium Uptake Test (IC50). The essentials: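 Neonatal SD rat DRG neurons, cultured 2 days with NGF (200 ng/ml) and Ara-C, were washed in HEPES (10 mM, pH 7.4)-buffered Ca/Mg-free HBSS. Test compound was added with capsaicin (final 0.5 μM) and 45Ca (10 μCi/ml) for 10 min at room temperature; 45Ca uptake counted by scintillation after SDS elution.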
For the compound `C[C@@H](NC(=O)/C=C/c1ccc(C(F)(F)F)nc1Nc1ccccc1)c1ccc(NS(C)(=O)=O)c(F)c1` [Example 149, (R)—N-[1-(3-Fluoro-4-methanesulfonylamino-phenyl)-ethyl]-3-(2-phenylamino-6-trifluoromethyl-pyridin-3-yl)-acrylamide], the IC50 was 250 nM.

As to `C#Cc1cc(CNC(=O)/C=C/c2ccc(C(F)(F)F)nc2N2CCC(OC)C2)cc(F)c1NS(C)(=O)=O` (stereo not shown) [Example 85], the 50% inhibitory concentration (IC50) amounted to 180 nM.

`CCNc1nc(C(F)(F)F)ccc1/C=C/C(=O)NCc1cc(F)c(NS(C)(=O)=O)c(C#N)c1` [Example 259, N-(3-Cyano-5-fluoro-4-methanesulfonylamino-benzyl)-3-(2-ethylamino-6-trifluoromethyl-pyridin-3-yl)-acrylamide]: the IC50 came to 190 nM.

Consider `CCCCc1nc(C(F)(F)F)ccc1/C=C/C(=O)N[C@H](C)c1ccc(NS(C)(=O)=O)c(F)c1` [Example 193, (R)-3-(2-Butyl-6-trifluoromethyl-pyridin-3-yl)-N-[1-(3-fluoro-4-methanesulfonylamino-phenyl)-ethyl]-acrylamide], for which the IC50 is 42 nM.

For the compound `CS(=O)(=O)Nc1ccc(CNC(=O)/C=C/c2cnc(Cl)cc2C(F)(F)F)cc1F` [Example 53, 3-(6-Chloro-4-trifluoromethyl-pyridin-3-yl)-N-(3-fluoro-4-methanesulfonylamino-benzyl)-acrylamide], the IC50 is over 10000 nM.

In the case of `CC(C)Cc1nc(C(F)(F)F)ccc1/C=C/C(=O)N[C@H](C)c1ccc(NS(C)(=O)=O)c(F)c1` [Example 175, (R)—N-[1-(3-Fluoro-4-methanesulfonylamino-phenyl)-ethyl]-3-(2-isobutyl-6-trifluoromethyl-pyridin-3-yl)-acrylamide], the concentration for half-maximal inhibition (IC50) worked out at 24 nM.

On to `CCCCNc1nc(C(F)(F)F)ccc1/C=C/C(=O)NCc1ccc(NS(C)(=O)=O)c(F)c1` [Example 88, 3-(2-Butylamino-6-trifluoromethyl-pyridin-3-yl)-N-(3-fluoro-4-methanesulfonylamino-benzyl)-acrylamide], for which the IC50 amounted to 400 nM.

On to `CCCCOc1nc(C(F)(F)F)ccc1CCC(=O)NCc1ccc(NS(C)(=O)=O)c(F)c1` [Example 86, 3-(2-Butoxy-6-trifluoromethyl-pyridin-3-yl)-N-(3-fluoro-4-methanesulfonylamino-benzyl)-propionamide], for which the IC50 turned out to be 1200 nM.

With `C#Cc1cc(CNC(=O)/C=C/c2ccc(C(C)(C)C)nc2N2CCOCC2)cc(F)c1NS(C)(=O)=O` [Example 59, 3-(6-tert-Butyl-2-morpholin-4-yl-pyridin-3-yl)-N-(3-ethynyl-5-fluoro-4-methanesulfonylamino-benzyl)-acrylamide], the IC50 was determined as 210 nM.

With `C#Cc1cc(CNC(=O)/C=C/c2ccc(C(F)(F)F)nc2C(C)C)cc(F)c1NS(C)(=O)=O` [Example 231, N-(3-Ethynyl-5-fluoro-4-methanesulfonylamino-benzyl)-3-(2-isopropyl-6-trifluoromethyl-pyridin-3-yl)-acrylamide], the half-maximal inhibitory concentration (IC50) amounted to 76 nM.

Regarding `CCCCc1nc(C(F)(F)F)ccc1C#CC(=O)NCc1ccc(NS(C)(=O)=O)cc1` [Example 266, 3-(2-Butyl-6-trifluoromethyl-pyridin-3-yl)-propynoic acid 4-methanesulfonylamino-benzylamide], the IC50 stood at 1400 nM.

Regarding `CS(=O)(=O)Nc1ccc(CNC(=O)/C=C/c2ccc(C(F)(F)F)nc2N2CCCC2)cc1F` [Example 55, N-(3-Fluoro-4-methanesulfonylamino-benzyl)-3-(2-pyrrolidin-1-yl-6-trifluoromethyl-pyridin-3-yl)-acrylamide], the IC50 was determined as 1400 nM.

As to `C#Cc1cc(CNC(=O)/C=C/c2ccc(C(F)(F)F)nc2CCCCC)cc(F)c1NS(C)(=O)=O` [Example 197, N-(3-Ethynyl-5-fluoro-4-methanesulfonylamino-benzyl)-3-(2-pentyl-6-trifluoromethyl)-pyridin-3-yl-acrylamide], the IC50 is 65 nM.

What is called IC50 is the concentration that inhibits the measured activity by half.
